# Laboratory results published in patent publication US10112955B2, “Isoindoline, azaisoindoline, dihydroindenone and dihydroazaindenone inhibitors of Mnk1 and Mnk2” (eFFECTOR THERAPEUTICS, INC., priority 2015, dated 2018).
# Like-named read-outs stand apart in the source and are kept apart here.
# How the values were obtained:
# [1] = target: MNK2 (Homo sapiens (Human), UniProt Q9HBH9); experiment: MNK Biochemical Enzymatic Assay (ADP-Glo), MNK2; details: 3 nM recombinant MNK2, 50 μM substrate peptide, 10 μM ATP
# Sequence of MNK2 (Q9HBH9 whole entry): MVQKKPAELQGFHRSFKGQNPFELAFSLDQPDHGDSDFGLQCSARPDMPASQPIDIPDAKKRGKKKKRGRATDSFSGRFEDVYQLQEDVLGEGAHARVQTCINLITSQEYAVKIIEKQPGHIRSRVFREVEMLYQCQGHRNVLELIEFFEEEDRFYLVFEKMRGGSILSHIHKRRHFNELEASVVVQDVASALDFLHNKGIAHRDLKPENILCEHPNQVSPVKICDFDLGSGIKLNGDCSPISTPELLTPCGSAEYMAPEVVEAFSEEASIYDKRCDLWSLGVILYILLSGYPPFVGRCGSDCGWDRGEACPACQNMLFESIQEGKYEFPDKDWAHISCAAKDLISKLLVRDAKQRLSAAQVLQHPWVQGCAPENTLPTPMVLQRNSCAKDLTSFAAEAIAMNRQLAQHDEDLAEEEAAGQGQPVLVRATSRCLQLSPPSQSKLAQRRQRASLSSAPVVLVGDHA
# Description: (§1) Compounds are screened for MNK inhibition using the ADP-Glo kinase assay kit (Promega, catalogue No. V9101). All kinase reactions are performed in Reaction Buffer E (15 mM HEPES pH7.4, 20 mM NaCl, 1 mM EGTA, 10 mM MgCl2, 0.1 mg/ml BGG, and 0.02% Tween-20). […] Final DMSO concentration in each reaction is 1%.
# (§2) Kinase reactions are carried out in 96-well half-area white flat-bottom polystyrene plates in a final volume of 25 μl. MNK1/2 enzymes are pre-incubated with compound and peptide substrate for 5 minutes prior to the addition of ATP. After the addition of ATP, kinase reactions are incubated at room temperature for 40 minutes. Reactions are subsequently stopped by the addition of 25 μl of ADP-Glo Reagent and incubating for an additional 40 minutes. The final luminescent signal used for kinase activity readout is produced by the addition of 45 μl of Kinase Detection Reagent (ADP-Glo kit, Promega) and incubating for 40 minutes.
# [2] = system: Phosphorylated eIF4E; experiment: peIF4E Signaling Cellular Assay (CisBio peIF4E HTRF); format: cell-based; details: cells incubated with compound for 2 hrs at 37° C., 12-point curve
# Description: Phosphorylated eIF4E is assayed using the CisBio peIF4E HTRF® assay kit (CisBio, catalogue No. 64EF4PEG). Cells are plated in 96-well tissue-culture treated plate in appropriate growth medium (90 μL). Compounds (10×) are diluted using 3-fold serial dilutions in cell culture medium and added to cells. Plates are incubated for 2 hrs at 37° C. The cell supernatant is carefully removed either by aspirating supernatant or by flicking the plate. Immediately 50 μL of supplemented lysis buffer (1×) is added and incubated for at least 30 minutes at room temperature under shaking. After homogenization by pipeting up and down, 16 μL of cell lysate is transferred from the 96-well cell-culture plate to a 384-well small volume white plate. 4 μL of premixed antibody solutions (vol/vol) is prepared in the detection buffer and added. The plate is covered with a plate sealer and incubated overnight at room temperature. The fluorescence emissions at two different wavelengths are read (665 nm and 620 nm) on a Wallac Victor2. Emission ratios are converted into percent inhibitions and imported into GraphPad Prism software. […] IC50 values are determined using a nonlinear regression model available in GraphPad Prism 5.
# [3] = target: MNK1 (Homo sapiens (Human), UniProt Q9BUB5); experiment: MNK Biochemical Enzymatic Assay (ADP-Glo), MNK1
# Sequence of MNK1 (Q9BUB5 whole entry): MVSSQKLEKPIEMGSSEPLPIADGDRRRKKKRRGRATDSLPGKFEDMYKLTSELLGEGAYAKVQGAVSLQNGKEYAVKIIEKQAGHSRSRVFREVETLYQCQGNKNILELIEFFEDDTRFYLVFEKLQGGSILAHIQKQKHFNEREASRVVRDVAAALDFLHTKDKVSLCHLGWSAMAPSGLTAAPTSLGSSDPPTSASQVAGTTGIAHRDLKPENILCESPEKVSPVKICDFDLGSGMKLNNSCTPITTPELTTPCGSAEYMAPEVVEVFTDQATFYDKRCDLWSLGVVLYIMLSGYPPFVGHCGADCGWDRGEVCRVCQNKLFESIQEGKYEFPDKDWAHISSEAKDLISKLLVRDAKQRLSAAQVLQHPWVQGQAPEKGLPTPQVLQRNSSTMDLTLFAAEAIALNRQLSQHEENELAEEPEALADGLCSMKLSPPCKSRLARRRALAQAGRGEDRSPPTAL
# Description: as §1, §2
# [4] = 10 nM recombinant MNK1, 100 μM substrate peptide, 300 μM ATP, read-out: IC50 Mnk1
IC50 [1] [nM],IC50 [2] [nM],"IC50 [3, 4] [nM]",Compound,IC50 [3] [nM]
100 to 10000,1000 to 100000,,"O=C1NC2CC2c2cc(Nc3ccncn3)ccc21 (stereo not drawn) [Cpd. No. 29, 6-(pyrimidin-4-ylamino)-1,1a,2,7b-tetrahydro-3H-cyclopropa[c]isoquinolin-3-one]",
< 10,< 50,,"O=C1NC2(CCCCC2)c2cc(Nc3ccncn3)cc(Cl)c21 [Cpd. No. 46, 4′-chloro-6′-(pyrimidin-4-ylamino)spiro[cyclohexane-1,1′-isoindolin]-3′-one]",
10 to 100,50 to 1000,< 10,"CC1CC(=O)c2ccc(Nc3cc(NC(=O)C4CC4)ncn3)cc21 (stereo not drawn) [Cpd. No. 19, N-(6-((3-methyl-1-oxo-2,3-dihydro-1H-inden-5-yl)amino)pyrimidin-4-yl)cyclopropanecarboxamide]",
< 10,50 to 1000,,"CCc1c(N)ncnc1Nc1cc(C)c2c(c1)C1(CCCCC1)NC2=O [Cpd. No. 53, 6′-((6-amino-5-ethylpyrimidin-4-yl)amino)-4′-methylspiro[cyclohexane-1,1′-isoindolin]-3′-one]",
10 to 100,1000 to 100000,< 10,"CC(=O)Nc1cc(Nc2ccc3c(c2)CNC3=O)ncn1 [Cpd. No. 11, N-(6-((1-oxoisoindolin-5-yl)amino)pyrimidin-4-yl)acetamide]",
< 10,50 to 1000,< 10,"CC1(C)NC(=O)c2c(Cl)cc(Nc3ccncn3)cc21 [Cpd. No. 36, 7-chloro-3,3-dimethyl-5-(pyrimidin-4-ylamino)isoindolin-1-one]",
100 to 10000,,,"CNc1cc(Nc2ccc3c(c2)C(C)NC3=O)ccn1 (stereo not drawn) [Cpd. No. 25, 3-methyl-5-((2-(methylamino)pyridin-4-yl)amino) isoindolin-1-one]",
100 to 10000,,,"CC1NC(=O)c2ccc(Nc3ncnc4c3CC(=O)N4)cc21 (stereo not drawn) [Cpd. No. 41, 4-[(3-methyl-1-oxo-isoindolin-5-yl)amino]-5,7-dihydropyrrolo[2,3-d]pyrimidin-6-one]",
100 to 10000,,,"CC1c2cc(Nc3ccncn3)ccc2C(=O)N1C (stereo not drawn) [Cpd. No. 20, 2,3-dimethyl-5-(pyrimidin-4-ylamino)isoindolin-1-one]",
100 to 10000,,,"CC1NC(=O)c2ccc(Nc3cc(NC(=O)C(C)(C)C)ncn3)cc21 (stereo not drawn) [Cpd. No. 18, N-(6-((3-methyl-1-oxoisoindolin-5-yl)amino)pyrimidin-4-yl)pivalamide]",
< 10,< 50,,"Cc1cc(Nc2cc(N)ncn2)cc2c1C(=O)NC21CCCCC1 [Cpd. No. 51, 6′-((6-aminopyrimidin-4-yl)amino)-4′-methylspiro[cyclohexane-1,1′-isoindolin]-3′-one]",
100 to 10000,,,"NC1CC(=O)c2ccc(Nc3ccncn3)cc21 (stereo not drawn) [Cpd. No. 28, 3-amino-5-(pyrimidin-4-ylamino)-2,3-dihydro-1H-inden-1-one]",
,,,"Cn1cc(Nc2cc(Nc3ccc4c(c3)CNC4=O)ncn2)cn1 [Cpd. No. 6, 5-((6-((1-methyl-1H-pyrazol-4-yl)amino)pyrimidin-4-yl)amino)isoindolin-1-one]",10 to 100
< 10,< 50,,"Nc1cc(Nc2cc(Cl)c3c(c2)C2(CCCCC2)NC3=O)ncn1 [Cpd. No. 48, 6′-((6-aminopyrimidin-4-yl)amino)-4′-chlorospiro[cyclohexane-1,1′-isoindolin]-3′-one]",
,,100 to 10000,"O=C1CCc2cc(Nc3ccncn3)ccc21 [Cpd. No. 5, 5-(pyrimidin-4-ylamino)-2,3-dihydro-1H-inden-1-one]",
< 10,< 50,,"CC1(C)NC(=O)c2c(Cl)cc(Nc3ncnc(N)c3Cl)cc21 [Cpd. No. 50, 5-((6-amino-5-chloropyrimidin-4-yl)amino)-7-chloro-3,3-dimethylisoindolin-1-one]",
10 to 100,1000 to 100000,,"NC(=O)c1ccc2c(c1)ncn2-c1cc(N)ncn1 [Cpd. No. 49, 1-(6-aminopyrimidin-4-yl)-1H-benzo[d]imidazole-5-carboxamide]",

IC50 [1] [nM],IC50 [2] [nM],"IC50 [3, 4] [nM]",Compound,IC50 [3] [nM]
< 10,< 50,,"Nc1ncnc(Nc2cc(Cl)c3c(c2)C2(CCCCC2)NC3=O)c1Cl [Cpd. No. 59, 6′-((6-amino-5-chloropyrimidin-4-yl)amino)-4′-chlorospiro[cyclohexane-1,1′-isoindolin]-3′-one]",
100 to 10000,,,"CSc1cc(Nc2ccc3c(c2)C(C)NC3=O)ncn1 (stereo not drawn) [Cpd. No. 16, 3-methyl-5-((6-(methylthio)pyrimidin-4-yl)amino)isoindolin-1-one]",
< 10,50 to 1000,,"Cc1cc(Nc2cc(N)ncn2)cc2c1C(=O)NC21CCCC1 [Cpd. No. 47, 6′-((6-aminopyrimidin-4-yl)amino)-4′-methylspiro[cyclopentane-1,1′-isoindolin]-3′-one]",
< 10,< 50,,"COc1cncnc1Nc1cc(C)c2c(c1)C1(CCCCC1)NC2=O [Cpd. No. 54, 6′-((5-methoxypyrimidin-4-yl)amino)-4′-methylspiro[cyclohexane-1,1′-isoindolin]-3′-one]",
10 to 100,50 to 1000,,"CCc1cncnc1Nc1cc(C)c2c(c1)C1(CCCCC1)NC2=O [Cpd. No. 56, 6′-((5-ethylpyrimidin-4-yl)amino)-4′-methylspiro[cyclohexane-1,1′-isoindolin]-3′-one]",
< 10,1000 to 100000,,"CC1(C)NC(=O)c2ccc(Nc3cc(N)ncn3)c(Cl)c21 [Cpd. No. 52, 5-((6-aminopyrimidin-4-yl)amino)-4-chloro-3,3-dimethylisoindolin-1-one]",
100 to 10000,,,"Cc1cc(Nc2ccc3c(c2)C(C)NC3=O)ncn1 (stereo not drawn) [Cpd. No. 26, 3-methyl-5-((6-methylpyrimidin-4-yl)amino)isoindolin-1-one]",
,,10 to 100,"O=C1NCc2cc(Nc3ncnc4[nH]cnc34)ccc21 [Cpd. No. 1, 5-((9H-purin-6-yl)amino)isoindolin-1-one]",
100 to 10000,,,"CC1Cc2cc(Nc3ccncn3)ccc2NC1=O (stereo not drawn) [Cpd. No. 21, 3-methyl-6-(pyrimidin-4-ylamino)-3,4-dihydroquinolin-2(1H)-one]",
< 10,,< 10,"O=C1NC(c2ccsc2)c2cc(Nc3ccncn3)ccc21 (stereo not drawn) [Cpd. No. 37, 5-(pyrimidin-4-ylamino)-3-(thiophen-3-yl)isoindolin-1-one]",
,,100 to 10000,"O=C1NCc2cc(Nc3cc(Cl)ncn3)ccc21 [Cpd. No. 4, 5-((6-chloropyrimidin-4-yl)amino)isoindolin-1-one]",
,,100 to 10000,"O=C1NCc2cc(Nc3ccncn3)ccc21 [Cpd. No. 3, 5-(pyrimidin-4-ylamino)isoindolin-1-one]",
100 to 10000,,,"CC1(N)CC(=O)c2ccc(Nc3ccncn3)cc21 (stereo not drawn) [Cpd. No. 30, 3-amino-3-methyl-5-(pyrimidin-4-ylamino)-2,3-dihydro-1H-inden-1-one]",
100 to 10000,,,"CC1(N)CNC(=O)c2ccc(Nc3ccncn3)cc21 (stereo not drawn) [Cpd. No. 32, 4-amino-4-methyl-6-(pyrimidin-4-ylamino)-3,4-dihydroisoquinolin-1(2H)-one]",
< 10,50 to 1000,,"Cc1cc(Nc2cc(N)ncn2)cc2c1C(=O)NC2(C)C [Cpd. No. 44, 5-((6-aminopyrimidin-4-yl)amino)-3,3,7-trimethylisoindolin-1-one]",
,,10 to 100,"CN1Cc2cc(Nc3ncnc4[nH]cnc34)ccc2C1=O [Cpd. No. 2, 5-((9H-purin-6-yl)amino)-2-methylisoindolin-1-one]",
100 to 10000,,,"O=c1[nH]sc2cc(Nc3ccncn3)ccc12 [Cpd. No. 27, 6-(pyrimidin-4-ylamino)benzo[d]isothiazol-3(2H)-one]",
